# B1: mature Smac protein: mature Smac protein, endogenous inhibitor of XIAP (protein, UniProt Q9NR28 22-239, looked up)
# Diablo IAP-binding …: LCVPVVANFKKRCFSELIRPWHKTVTIGFGVTLCAVPIAQKSEPHSLSSEALMRRAVSLVTDSTSTFLSQTTYALIEAITEYTKAVYTLTSLYRQYTSLLGKMNSEEEDEVWQVIIGARAEMTSKHQEYLKLETTWMTAVGLSEMAAEAAYQTGADQASITARNHIQLVKLQVEEVHQLSRKAETKLAEAQIEELRQKTQEEGEERAESEQEAYLRED
# B2: TRAIL: tumor necrosis factor-related apoptosis-inducing ligand (protein, UniProt P50591 1-281, looked up)
# Tumor necrosis factor ligand …: MAMMEVQGGPSLGQTCVLIVIFTVLLQSLCVAVTYVYFTNELKQMQDKYSKSGIACFLKEDDSYWDPNDEESMNSPCWQVKWQLRQLVRKMILRTSEETISTVQEKQQNISPLVRERGPQRVAAHITGTRGRSNTLSSPNSKNEKALGRKINSWESSRSGHSFLSNLHLRNGELVIHEKGFYYIYSQTYFRFQEEIKENTKNDKQMVQYIYKYTSYPDPILLMKSARNSCWSKDAEYGLYSIYQGGIFELKENDRIFVSVTNEHLIDMDHEASFFGAFLVG
# Key:
# PC-3 cells = test: Apoptosis by Annexin V-FITC staining in PC-3 cells; format: cell-based, human
# Description: SH-97, a peptido-mimetic in which the side chain of alanine has been replaced with an ethyl group and the isoleucine has been replaced with a diphenylmethyl group, was used to test the basic premise. Of note, SH-97 still has two natural amino acids (valine and proline) and one natural peptide bond. […] The experiment used PC-3 cells which express high levels of XIAP and cIAP-1/2 proteins and cisplatin (CDDP) as the chemotherapeutic drug. CDDP is a DNA damaging agent and can effectively induce apoptosis in PC-3 cells and is also a clinically used chemotherapeutic drug for prostate cancer.
# PC-3 cells were treated with CDDP, Smac peptides and mimetics alone or in combination for 42 hours and apoptosis was analyzed by Annexin V-FITC staining. […] Combination of 25 μM CDDP and 10 μM or 25 μM SH-97 induced 29.3%±1.9% and 35.8%±0.4% apoptosis over control cells, respectively (FIG. 18A).
# Similar experiments were performed with SH-102 (Table 5). PC-3 cells in 6-well plates were treated with SH-102 and CDDP, alone or in combination, for 42 hours. Cells were collected and stained with Annexin V-FITC and propidium iodide. The fluorescence of Annexin V-FITC and propidium iodide of individual cells was analyzed by flow cytometry. […] Combination of 25 μM CDDP and 10 μM SH-102 induced 32% apoptosis over control cells (FIG. 19).
# The same experiment was performed using TAXOTERE (docetaxel), another cancer chemotherapeutic drug. PC-3 cells in 6-well plates were treated with SH-102 and TAXOTERE, alone or in combination, for 42 hours. Cells were collected and stained with Annexin V-FITC and propidium iodide. The fluorescence of Annexin V-FITC and propidium iodide of individual cells was analyzed by flow cytometry. […] Combination of 10 μM TAXOTERE and 10 μM SH-102 induced about 18% apoptosis over control cells (FIG. 21).
# MDA-231 cells = test: Apoptosis by Annexin V-FITC/propidium iodide in MDA-231 cells; format: cell-based, human
# Description: Similar experiments were performed using the breast cancer cell line MDA-231. MDA-231 cells in 6-well plates were treated with SH-102 and CDDP, alone or in combination, for 42 hours. Cells were collected and stained with Annexin V-FITC and propidium iodide. The fluorescence of Annexin V-FITC and propidium iodide of individual cells was analyzed by flow cytometry. 25 μM and 50 μM CDDP induced about 25% and 42% of MDA-231 cells to undergo apoptosis as compared to control cells, respectively (FIG. 22). […] Combination of 25 and 50 μM CDDP and 10 μM SH-102 induced about 35% and 75% apoptosis over control cells, respectively (FIG. 22).
# [1] = tested on: MDA-435, MDA-468, and T47D cells; test: Cell growth inhibition, WST-8, breast cancer cell lines; format: cell-based, human; settings: Homo sapiens, 120 h, 5 days, each of the three cell lines
# Description: To test the effect of Smac mimetics by themselves in inhibition of cell growth in human cancer cells, SH-102 was administered to three different breast cancer cell lines. MDA-435, MDA-468, and T47D cells were seeded in 96-well plates with increasing concentrations of SH-102, Smac8, or Smac8-C. The cells were then incubated at 37° C. with 5% CO2 for 5 days, followed by detection of cell viability with WST-8 (10% Dojindo solution in IMEM with 10% FCS). OD values at 450 nm with reference at 650 nm were read approximately 3 hours later. Untreated cells were used as 100% growth. […]. […] (FIGS. 26A-26C).
# Jurkat-XIAP cells = test: Sub-G1 apoptosis in Jurkat cells overexpressing XIAP
# Jurkat-Bir3 cells = test: Sub-G1 apoptosis in Jurkat cells expressing XIAP-Bir3
# [2] = tested on: BT-549, MDA-MB-231 (subclone 2LMP), MDA-MB-231 (ATCC) and PC-3 cells; test: Cell growth inhibition, WST-8, cancer cell lines; format: cell-based, human
# Description: (§1) To test the effect of [6.3.0] Smac mimetics in inhibition of cell growth in human cancer cells, compounds were administered to several different cancer cell lines. BT-549, MDA-MB-231 (subclone 2LMP), and MDA-MB-231 (ATCC) human breast cancer cells and PC-3 human prostate cancer cells were seeded in 96-well plates with increasing concentrations of the compounds. To assay for the selectivity of the compounds for cancer cells, normal prostate epithelial cells were also tested. The cells were then incubated at 37° C. with 5% CO2 for 5 days, followed by detection of cell viability with WST-8. Untreated cells were used as 100% growth. The compounds tested were SH-109, SH-122 and SH-123 (Table 6).
# [3] = tested on: normal prostate epithelial cells; test: Cell growth inhibition, WST-8, normal cells; format: cell-based; settings: 5 days
# Description: as §1
# [4] = tested on: MDA-MB-231 (subclone 2LMP) breast cancer cells; test: Cell growth inhibition in combination with TRAIL, WST-8; format: cell-based, human; settings: 4 days
# Description: To test the ability of SH-122 to enhance the cell growth inhibitory activity of TRAIL, MDA-MB-231 (subclone 2LMP) breast cancer cells were seeded in 96-well plates with various concentrations of TRAIL in the presence of increasing amounts of SH-122. The cells were then incubated at 37° C. with 5% CO2 for 4 days, followed by detection of cell viability with WST-8.
# XIAP BIR3 = XIAP BIR3 (Homo sapiens, UniProt P98170); test: biochemical
# Jurkat-Vec cells = test: Sub-G1 apoptosis in Jurkat cells with control vector; format: cell-based, human; settings: 10 μM etoposide alone, 15 hours
# Description: Data were analyzed to calculate the percentage of sub-G1 cells (apoptotic cells) using CellQuest software (Becton Dickinson).
# XIAP = XIAP (Homo sapiens, UniProt P98170); settings: background statement; cited from earlier work
# XIAP, sequence (P98170 whole entry): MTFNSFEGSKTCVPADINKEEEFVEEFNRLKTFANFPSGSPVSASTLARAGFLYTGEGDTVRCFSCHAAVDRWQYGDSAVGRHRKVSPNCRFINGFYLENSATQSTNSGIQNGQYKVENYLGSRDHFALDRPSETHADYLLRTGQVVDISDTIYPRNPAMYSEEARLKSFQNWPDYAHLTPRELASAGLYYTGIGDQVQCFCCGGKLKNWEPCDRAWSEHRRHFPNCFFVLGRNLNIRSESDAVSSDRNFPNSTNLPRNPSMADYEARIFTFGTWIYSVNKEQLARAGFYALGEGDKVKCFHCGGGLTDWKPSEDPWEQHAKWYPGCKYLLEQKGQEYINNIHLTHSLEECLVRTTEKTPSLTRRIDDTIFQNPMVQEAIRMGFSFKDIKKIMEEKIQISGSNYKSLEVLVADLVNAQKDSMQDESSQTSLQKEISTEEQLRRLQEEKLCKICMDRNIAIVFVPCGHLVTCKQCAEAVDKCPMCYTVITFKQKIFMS
# XIAP BIR3, sequence (P98170 241-356): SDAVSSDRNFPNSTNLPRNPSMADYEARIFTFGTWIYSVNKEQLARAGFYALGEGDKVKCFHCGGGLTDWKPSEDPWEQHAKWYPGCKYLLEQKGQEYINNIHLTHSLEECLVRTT
molecule,measurement,setting,value
CC[C@H](N)C(=O)N[C@H]1CCC[C@H]2CC[C@@H](C(=O)NC(c3ccccc3)c3ccccc3)N2C1=O [Compound 34],apoptosis over control cells,"PC-3 cells; 10 μM TAXOTERE + 10 μM SH-102, 42 hours",about 18%
same,apoptosis over control cells,"PC-3 cells; 25 μM CDDP + 10 μM compound, 42 hours",32%
same,apoptosis compared to untreated cancer cells,"PC-3 cells; compound alone up to 100 μM, 42 hours",did not induce significantly more apoptosis
same,ability to sensitize cells to CDDP,MDA-231 cells; 10 μM SH-102 compared with 100 μM pSmac8-C,as great as that of 100 μM pSmac8-C
same,apoptosis over control cells,"MDA-231 cells; 25 μM CDDP + 10 μM SH-102, 42 hours",about 35%
same,apoptosis over control cells,"MDA-231 cells; 50 μM CDDP + 10 μM SH-102, 42 hours",~75%
same,IC50,[1],30000 to 70000 nM
same,effectiveness in overcoming protective effect of XIAP,Jurkat-XIAP cells; 10 μM SH-102 compared with 50 μM Smac8-C,at least as effective as 50 μM Smac8-C
same,apoptosis (sub-G1),"Jurkat-XIAP cells; 10 μM SH-102 in combination with etoposide, 15 hours",about 15%
same,apoptosis,Jurkat-Bir3 cells; etoposide + 10 μM SH-102,about 25%
same,apoptosis,Jurkat-Bir3 cells; etoposide + 20 μM SH-102,~30%
CC[C@H](NC)C(=O)N[C@H]1CCCC[C@H]2CC[C@@H](C(=O)NC(c3ccccc3)c3ccccc3)N2C1=O [SH-122],cell growth inhibition (in words),"[2]; 5 days, WST-8, each of the cancer cell lines",inhibited the cell growth
same,rank of potency in cell growth inhibition,"[2]; among SH-109, SH-122, SH-123, each cell line",most potent
same,cell growth inhibition (in words),[3],no cell growth inhibition effect
same,decrease of the IC50 of TRAIL,[4]; 250 nM SH-122 with TRAIL,approximately ten-fold
same,Ki,XIAP BIR3,30 nM
"COc1cc([C@@H]2c3cc4c(cc3[C@@H](O[C@@H]3O[C@@H]5CO[C@@H](C)O[C@H]5[C@H](O)[C@H]3O)[C@H]3COC(=O)[C@H]23)OCO4)cc(OC)c1O [etoposide, reference compound]",apoptotic cells (sub-G1),Jurkat-Vec cells,about 50%
same,apoptotic cells (sub-G1),"Jurkat-XIAP cells; 10 μM etoposide alone, 15 hours",about 10%
same,apoptosis,Jurkat-Bir3 cells; 20 μM etoposide alone,about 18%
B1,Kd,XIAP,420 nM
B2,cell growth inhibition (in words),[4]; TRAIL by itself,inhibited the growth of the cells in a dose dependent fashion

# Reference: patent US7674787B2, “Conformationally constrained Smac mimetics and the uses thereof” (The Regents of the University of Michigan, priority 2004, dated 2010)
